Patent publication US20160159816A1, “SUBSTITUTED THIENOPYRIMIDINES AND PHARMACEUTICAL USE THEREOF” (BAYER PHARMA AKTIENGESELLSCHAFT, priority 2013, published 2016)

The molecules below were run against T1, human full-length MKNK1 (Homo sapiens, UniProt Q9BUB5, T385D) (assay: MKNK1 kinase high ATP assay (TR-FRET)). Conditions: high ATP (2 mM), after preincubation with MKNK1; compounds of the present invention (Table 1a).
T1 construct: GST (N); purchased Carna Biosciences 02-145; host or cells: insect cells, baculovirus expression system
T1 sequence (Q9BUB5 1-424 isoform Q9BUB5-2 T344D): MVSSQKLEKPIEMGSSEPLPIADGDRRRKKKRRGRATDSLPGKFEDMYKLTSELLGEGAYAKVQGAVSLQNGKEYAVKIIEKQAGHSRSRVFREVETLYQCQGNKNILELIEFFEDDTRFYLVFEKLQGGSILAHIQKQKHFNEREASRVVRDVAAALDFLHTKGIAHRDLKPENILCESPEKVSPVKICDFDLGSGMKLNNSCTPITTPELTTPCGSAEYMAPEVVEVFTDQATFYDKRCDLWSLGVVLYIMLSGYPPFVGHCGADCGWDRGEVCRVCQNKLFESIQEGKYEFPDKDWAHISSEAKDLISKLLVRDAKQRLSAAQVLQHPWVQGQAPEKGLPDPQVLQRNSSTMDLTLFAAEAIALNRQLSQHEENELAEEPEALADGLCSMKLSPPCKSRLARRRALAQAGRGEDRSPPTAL
Type: biochemical
Summary of the method: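 GST-tagged full-length human MKNK1 pre-incubated 15 min with compound, then reacted 30 min at 22 °C with 2 mM ATP and 0.06 μM biotinylated peptide substrate (pH 7.5). Phospho-peptide detected by TR-FRET (665/620 nm ratio); normalised to no-inhibitor and no-enzyme controls.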

| Compound | IC50 [nM] |
| --- | --- |
| COCC1(OC)CCc2c(sc3ncnc(Nc4ccc5[nH]ncc5c4)c23)C1 (racemic) [Example 37, (7RS)—N-(1H-Indazol-5-yl)-7-methoxy-7-(methoxymethyl)-5,6,7,8-tetrahydro[1]benzothieno[2,3-d]pyrimidin-4-amine] | 47.8 |
| COCC1(OC)CCc2c(sc3ncnc(Nc4cc5cn[nH]c5cc4Cl)c23)C1 (single isomer, unassigned) [Example 47, (7S) or (7R) N-(6-Chloro-1H-indazol-5-yl)-7-methoxy-7-(methoxymethyl)-5,6,7,8-tetrahydro[1]benzothieno[2,3-d]pyrimidin-4-amine] | 165 |
| COCC1(OC)CCc2c(sc3ncnc(Nc4cc5cn[nH]c5cc4OC)c23)C1 (racemic) [Example 32, (RS)-7-Methoxy-N-(6-methoxy-1H-indazol-5-yl)-7-(methoxymethyl)-5,6,7,8-tetrahydro[1]benzothieno[2,3-d]pyrimidin-4-amine] | 9.1 |
| COc1cc2[nH]ncc2cc1Nc1ncnc2sc3c(c12)CCC(CNC(=O)C(C)(C)O)C3 (racemic) [Example 22, (RS)-2-Hydroxy-N-({4-[(6-methoxy-1H-indazol-5-yl)amino]-5,6,7,8-tetrahydro[1]benzothieno[2,3-d]pyrimidin-7-yl}methyl)-2-methylpropanamide] | 4 |
| CC[C@]1(C(=O)N(C)C(C)C)CCc2c(sc3ncnc(Nc4cc5cn[nH]c5cc4OC)c23)C1 [Example 73, (7S) 7-Ethyl-N-isopropyl-4-[(6-methoxy-1H-indazol-5-yl)amino]-N-methyl-5,6,7,8-tetrahydro[1]benzothieno[2,3-d]pyrimidine-7-carboxamide] | 1.4 |
| CC[C@]1(C(=O)N(C)OC)CCc2c(sc3ncnc(Nc4cc5cn[nH]c5cc4OC)c23)C1 [Example 67, (7S) 7-Ethyl-N-methoxy-4-[(6-methoxy-1H-indazol-5-yl)amino]-N-methyl-5,6,7,8-tetrahydro[1]benzothieno[2,3-d]pyrimidine-7-carboxamide] | 1.8 |
| COc1cc2[nH]ncc2cc1Nc1ncnc2sc3c(c12)CC[C@](C)(C(=O)N1CCOC[C@H]1C)C3 [Example 54, (7S) {4-[(6-Methoxy-1H-indazol-5-yl)amino]-7-methyl-5,6,7,8-tetrahydro[1]benzothieno[2,3-d]pyrimidin-7-yl}[(3R)-3-methylmorpholin-4-yl]methanone] | 4.3 |
| O=C(NCC1CCc2c(sc3ncnc(Nc4ccc5[nH]ncc5c4)c23)C1)[C@@H](O)Cc1ccccc1 (mixture of isomers) [Example 14, (2R)-2-Hydroxy-N-{[(7RS)-4-(1H-indazol-5-ylamino)-5,6,7,8-tetrahydro[1]benzothieno[2,3-d]pyrimidin-7-yl]methyl}-3-phenylpropanamide] | 17 |
| CC[C@@]1(C(=O)N(C)C(C)C)CCc2c(sc3ncnc(Nc4cc5cn[nH]c5cc4OC)c23)C1 [Example 72, (7R) 7-Ethyl-N-isopropyl-4-[(6-methoxy-1H-indazol-5-yl)amino]-N-methyl-5,6,7,8-tetrahydro[1]benzothieno[2,3-d]pyrimidine-7-carboxamide] | 38.4 |
| COc1cc2[nH]ncc2cc1Nc1ncnc2sc3c(c12)CCC(CNC(=O)NC(C)C)C3 (racemic) [Example 20, (RS)-1-({4-[(6-Methoxy-1H-indazol-5-yl)amino]-5,6,7,8-tetrahydro[1]benzothieno[2,3-d]pyrimidin-7-yl}methyl)-3-propan-2-ylurea] | 3.1 |
| O=P(OCC1CCc2c(sc3ncnc(Nc4ccc5[nH]ncc5c4)c23)C1)(Oc1ccccc1)Oc1ccccc1 (racemic) [Example 5, (RS)-[4-(1H-Indazol-5-ylamino)-5,6,7,8-tetrahydro[1]benzothieno[2,3-d]pyrimidin-7-yl]methyl diphenyl phosphate] | 205 |
| COc1cc2[nH]ncc2cc1Nc1ncnc2sc3c(c12)CCC1(C3)OCCO1 [Example 24, N-(6-Methoxy-1H-indazol-5-yl)-5,8-dihydro-6H-spiro[1-benzothieno[2,3-d]pyrimidine-7,2′-[1,3]dioxolan]-4-amine] | 4.8 |
| COc1cc2[nH]ncc2cc1Nc1ncnc2sc3c(c12)CC[C@@](C)(C(=O)N1CCOCC1)C3 [Example 53, (7R) {4-[(6-Methoxy-1H-indazol-5-yl)amino]-7-methyl-5,6,7,8-tetrahydro[1]benzothieno[2,3-d]pyrimidin-7-yl}(morpholin-4-yl)methanone] | 18.9 |
| COc1cc2[nH]ncc2cc1Nc1ncnc2sc3c(c12)CCC(CNC(=O)C(C)C)C3 (racemic) [Example 21, (RS)—N-({4-[(6-Methoxy-1H-indazol-5-yl)amino]-5,6,7,8-tetrahydro[1]benzothieno[2,3-d]pyrimidin-7-yl}methyl)-2-methylpropanamide] | 2.1 |
| COc1cc2[nH]ncc2cc1Nc1ncnc2sc3c(c12)CCC(N(C)C)C3 (racemic) [Example 36, (RS)—N^4-(6-Methoxy-1H-indazol-5-yl)-N^7,N^7-dimethyl-5,6,7,8-tetrahydro[1]benzothieno[2,3-d]pyrimidine-4,7-diamine] | 14.1 |
| COc1cc2[nH]ncc2cc1Nc1ncnc2sc3c(c12)CC[C@](C)(C(=O)N1CCC1)C3 [Example 60, (7S) Azetidin-1-yl{(7S)-4-[(6-methoxy-1H-indazol-5-yl)amino]-7-methyl-5,6,7,8-tetrahydro[1]benzothieno[2,3-d]pyrimidin-7-yl}methanone] | 3.7 |
| COc1cc2[nH]ncc2cc1Nc1ncnc2sc3c(c12)CCC(CNC(=O)[C@@H](O)Cc1ccccc1)C3 (mixture of isomers) [Example 23, (2R)-2-Hydroxy-N-({(7RS)-4-[(6-methoxy-1H-indazol-5-yl)amino]-5,6,7,8-tetrahydro[1]benzothieno[2,3-d]pyrimidin-7-yl}methyl)-3-phenylpropanamide] | 5 |
| CC(C)NC(=O)NCC1CCc2c(sc3ncnc(Nc4ccc5[nH]ncc5c4)c23)C1 (racemic) [Example 8, (RS)-1-{[4-(1H-Indazol-5-ylamino)-5,6,7,8-tetrahydro[1]benzothieno[2,3-d]pyrimidin-7-yl]methyl}-3-propan-2-ylurea] | 34.4 |
| COCC1(OC)CCc2c(sc3ncnc(Nc4cc5cn[nH]c5cc4OC)c23)C1 (single isomer, unassigned) [Example 43, (7S) or (7R) 7-Methoxy-N-(6-methoxy-1H-indazol-5-yl)-7-(methoxymethyl)-5,6,7,8-tetrahydro[1]benzothieno[2,3-d]pyrimidin-4-amine] | 12.5 |
| COCC1(OC)CCc2c(sc3ncnc(Nc4cc5cn[nH]c5cc4Cl)c23)C1 (racemic) [Example 31, (RS)—N-(6-Chloro-1H-indazol-5-yl)-7-methoxy-7-(methoxymethyl)-5,6,7,8-tetrahydro[1]benzothieno[2,3-d]pyrimidin-4-amine] | 149 |
| COCC1(OC)CCc2c(sc3ncnc(Nc4cc5cn[nH]c5cc4C)c23)C1 (racemic) [Example 29, (RS)-7-methoxy-7-(methoxymethyl)-N-(6-methyl-1H-indazol-5-yl)-5,6,7,8-tetrahydro[1]benzothieno[2,3-d]pyrimidin-4-amine] | 984 |
| COc1cc2[nH]ncc2cc1Nc1ncnc2sc3c(c12)CC[C@@](C)(C(=O)N(C)C)C3 [Example 49, (7R) 4-[(6-Methoxy-1H-indazol-5-yl)amino]-N,N,7-trimethyl-5,6,7,8-tetrahydro[1]benzothieno[2,3-d]pyrimidine-7-carboxamide] | 13.3 |
| COCC1(OC)CCc2c(sc3ncnc(Nc4cc5cn[nH]c5cc4OC)c23)C1 (single isomer, unassigned) [Example 42, (7R) or (7S) 7-Methoxy-N-(6-methoxy-1H-indazol-5-yl)-7-(methoxymethyl)-5,6,7,8-tetrahydro[1]benzothieno[2,3-d]pyrimidin-4-amine] | 10.1 |
| OCc1cnnn1C[C@@H]1CCc2c(sc3ncnc(Nc4ccc5[nH]ncc5c4)c23)C1 (single isomer, unassigned) [Example 33, (1-{[(7R or 7S)-4-(1H-Indazol-5-ylamino)-5,6,7,8-tetrahydro[1]benzothieno[2,3-d]pyrimidin-7-yl]methyl}-1H-1,2,3-triazol-5-yl)methanol] | 16.9 |
